Measured values as given in patent US6806273B1, “Compounds” (AstraZeneca AB, priority 1998, dated 2004).

Row | SMILES | melting point
1 | CCCCCSc1nc(NC(CC)CO)c2sc(N)nc2n1 (racemic) [Example 6, (±)-2-[[2-Amino-5-(pentylthio)thiazolo[4,5-d]pyrimidin-7-yl]amino]-1-butanol] | 151 to 154 °C
2 | O=c1[nH]c(SCc2cccc(Oc3ccccc3)c2)nc2ncsc12 [Example 4, 5-[[(3-Phenoxyphenyl)methyl]thio]thiazolo[4,5-d]pyrimidin-7(4H)-one] | 197 to 198 °C
3 | Nc1nc2nc(SCc3cccc(Oc4ccccc4)c3)[nH]c(=O)c2s1 [Example 5, 2-Amino-5-[[(3-phenoxyphenyl)methyl]thio]thiazolo[4,5-d]pyrimidin-7(4H)-one] | 266 to 269 °C
4 | CCCCCSc1nc(NCCO)c2sc(N)nc2n1 [Example 7, 2-[[2-Amino-5-(pentylthio)thiazolo[4,5-d]pyrimidin-7-yl]amino]ethanol] | 192 to 195 °C
5 | CCCCCSc1nc2ncsc2c(=O)[nH]1 [Example 8, 5-(Pentylthio)thiazolo[4,5-d]pyrimidin-7(4H)-one] | 208 to 209 °C
6 | CCCCCSc1nc2nc(Br)sc2c(=O)[nH]1 [Example 11, 2-Bromo-5-(pentylthio)thiazolo[4,5-d]pyrimidin-7(4H)-one] | 189 to 191 °C
7 | CC[C@H](CO)Nc1nc(SCc2cccc(Oc3ccccc3)c2)nc2nc(N)sc12 [Example 111, (2R)-2-[[2-Amino-5-[[(3-phenoxyphenyl)methyl]thio]thiazolo[4,5-d]pyrimidin-7-yl]amino]-1-butanol] | 108 to 111 °C
8 | CC[C@@H](CO)Nc1nc(SCc2cccc(Oc3ccccc3)c2)nc2nc(N)sc12 [Example 112, (2S)-2-[[2-Amino-5-[[(3-phenoxyphenyl)methyl]thio]thiazolo[4,5-d]pyrimidin-7-yl]amino]-1-butanol] | 111 to 114 °C
9 | Nc1nc2nc(SCc3cccc(Oc4ccccc4)c3)nc(NC(CO)CO)c2s1 [Example 114, 2-[[2-Amino-5-[[(3-phenoxyphenyl)methyl]thio]thiazolo[4,5-d]pyrimidin-7-yl]amino]-1,3-propanediol] | 220 to 222 °C
10 | CC(C)(CO)Nc1nc(SCc2cccc(Oc3ccccc3)c2)nc2nc(N)sc12 [Example 115, 2-[[2-Amino-5-[[(3-phenoxyphenyl)methyl]thio]thiazolo[4,5-d]pyrimidin-7-yl]amino]-2-methyl-1-propanol] | 126 to 130 °C
